The numbers were not newly measured in patent US9580717B2, “Heterologous hosts” (priority 2009, dated 2017), which cites them from elsewhere.

Data set [1] concerns malignant mammalian cells.
In data set [2] the test system is tumour cell lines.
The subject of data set [3] is P388 leukaemia cells. The note with it: mouse, in vivo.

Take `C[C@H]1CCC(C2=C(CC(=O)NCC(=O)c3csc(C(=O)C(=O)c4csc(CNC(=O)CC5=C(C6=N[C@@H](C)CC6)C(=O)NC56CC6)n4)n3)C3(CC3)NC2=O)=N1` [Colibactin]: the “cytopathic activity against malignant mammalian cells” value in data set [1] is “cytopathic activity”.
In the case of `CCCCCCC/C=C/C=C/C(=O)N[C@H](C(=O)N[C@H]1C[C@@H](O)CCNC(=O)/C=C/[C@H](C)NC1=O)[C@@H](C)O` [Glidobactin A], in data set [2], the “cytotoxicity to tumour cell lines” value is “cytotoxic to tumour cell lines”. The “lifespan of mice inoculated with P388 leukaemia cells” value in data set [3] is recorded as “can prolong the lifespan”.
